This assay deals with progranulin. Briefly: Progranulin induction cellular assay (ELISA of secreted mouse PGRN). In kind it is cell-based. Conditions: progranulin induction assay; mouse pMG, primary cortical neurons and BV-2 cell lines named, cell type not given; ELISA-based readout; read-out: EC50. As to the method:
Cellular Assays: Progranulin induction assay. To measure the efficacy of compounds, a progranulin induction cellular assay in mouse primary microglia (pMG), primary cortical neurons, and BV-2 cell lines is used. BV-2 cells are split the day before plating into a 96 well plate format at approximately 80%. Cells should be plated the day before and allowed for 1 hour attachment period and for 16 hour incubation. Levels of progranulin secreted into the cell culture medium or retained in the cell lysate can be quantified using an ELISA-based readout and measurement of secreted mouse PGRN in the medium was assessed by the methodology published by Ghidoni et al. 2012. Standard ELISA kits to measure PGRN are available from vendors such as Adipogen, R&D, and Biovendor.
Table B below presents the results of a progranulin induction assay as described above.
A general note: ELISA stands for enzyme-linked immunosorbent assay.
Consider `CCN[C@H]1CO[C@@H](C(=O)N2CCc3ccccc3[C@@H]2c2ccc(F)cc2)OC1` [Compound 5050, (cis-5-(ethylamino)-1,3-dioxan-2-yl)((S)-1-(4-fluorophenyl)-3,4-dihydroisoquinolin-2(1H)-yl)methanone], for which the EC50 was 0.35 µM. Under `N[C@H]1C[C@H](C(=O)N2CCc3ccccc3[C@@H]2c2ccc(F)cc2)OC[C@H]1O` [Compound 5051, ((2R,4S,5S)-4-amino-5-hydroxytetrahydro-2H-pyran-2-yl)((S)-1-(4-fluorophenyl)-3,4-dihydroisoquinolin-2(1H)-yl)methanone] stands 0.006 µM. Regarding `N[C@@H]1CO[C@@H](C(=O)N2CCc3ccccc3[C@@H]2c2ccc(F)cc2)C[C@@H]1O` [Compound 5052, ((2R,4S,5R)-5-amino-4-hydroxytetrahydro-2H-pyran-2-yl)((S)-1-(4-fluorophenyl)-3,4-dihydroisoquinolin-2(1H)-yl)methanone], the EC50 was 0.018 µM. With `N[C@@H]1CO[C@H](C(=O)N2CCc3ccccc3[C@@H]2c2ccc(F)cc2)C[C@@H]1O` [Compound 5053, ((2S,4S,5R)-5-amino-4-hydroxytetrahydro-2H-pyran-2-yl)((S)-1-(4-fluorophenyl)-3,4-dihydroisoquinolin-2(1H)-yl)methanone] the figure was 0.077 µM; with `N[C@@H]1C[C@@H](C(=O)N2CCc3ccccc3[C@@H]2c2ccc(F)cc2)OC[C@@H]1O` [Compound 5054, ((2S,4R,5R)-4-amino-5-hydroxytetrahydro-2H-pyran-2-yl)((S)-1-(4-fluorophenyl)-3,4-dihydroisoquinolin-2(1H)-yl)methanone], 0.13 µM; with `N[C@H]1C[C@H](C(=O)N2CCc3ccccc3[C@@H]2c2ccc(F)cc2)OC[C@@H]1O` [Compound 5055, ((2R,4S,5R)-4-amino-5-hydroxytetrahydro-2H-pyran-2-yl)((S)-1-(4-fluorophenyl)-3,4-dihydroisoquinolin-2(1H)-yl)methanone], 0.056 µM.

For `N[C@H]1CO[C@H](C(=O)N2CCc3ccccc3[C@@H]2c2ccc(F)cc2)C[C@@H]1O` [Compound 5056, ((2S,4S,5S)-5-amino-4-hydroxytetrahydro-2H-pyran-2-yl)((S)-1-(4-fluorophenyl)-3,4-dihydroisoquinolin-2(1H)-yl)methanone], the EC50 turned out to be 0.127 µM. Under `N[C@@H]1CO[C@@H](C(=O)N2CCc3ccccc3[C@@H]2c2ccc(F)cc2)C[C@H]1O` [Compound 5057, ((2R,4R,5R)-5-amino-4-hydroxytetrahydro-2H-pyran-2-yl)((S)-1-(4-fluorophenyl)-3,4-dihydroisoquinolin-2(1H)-yl)methanone] stands 0.133 µM; under `N[C@H]1C[C@@H](C(=O)N2CCc3ccccc3[C@@H]2c2ccc(F)cc2)OC[C@H]1O` [Compound 5058, ((2S,4S,5S)-4-amino-5-hydroxytetrahydro-2H-pyran-2-yl)((S)-1-(4-fluorophenyl)-3,4-dihydroisoquinolin-2(1H)-yl)methanone], 0.29 µM; under `N[C@H]1CO[C@H](C(=O)N2CCc3ccccc3[C@@H]2c2ccc(F)cc2)C[C@@H]1F` [Compound 5059, ((2S,4S,5S)-5-amino-4-fluorotetrahydro-2H-pyran-2-yl)((S)-1-(4-fluorophenyl)-3,4-dihydroisoquinolin-2(1H)-yl)methanone], 0.344 µM. With `N[C@H]1CO[C@H](C(=O)N2CCc3ccccc3[C@@H]2c2ccc(F)cc2)CC1(F)F` [Compound 5060, ((2S,5S)-5-amino-4,4-difluorotetrahydro-2H-pyran-2-yl)((S)-1-(4-fluorophenyl)-3,4-dihydroisoquinolin-2(1H)-yl)methanone] the figure was 5.85 µM; with `N[C@@H]1CO[C@@H](C(=O)N2CCc3ccccc3[C@@H]2c2ccc(F)cc2)C[C@H]1F` [Compound 5061, ((2R,4R,5R)-5-amino-4-fluorotetrahydro-2H-pyran-2-yl)((S)-1-(4-fluorophenyl)-3,4-dihydroisoquinolin-2(1H)-yl)methanone], 0.478 µM; with `CO[C@@H]1CO[C@@H](C(=O)N2CCc3ccccc3[C@@H]2c2ccc(F)cc2)C[C@@H]1N` [Compound 5062, ((2R,4S,5S)-4-amino-5-methoxytetrahydro-2H-pyran-2-yl)((S)-1-(4-fluorophenyl)-3,4-dihydroisoquinolin-2(1H)-yl)methanone], 0.049 µM. With `CCO[C@@H]1CO[C@@H](C(=O)N2CCc3ccccc3[C@@H]2c2ccc(F)cc2)C[C@@H]1N` [Compound 5063, ((2R,4S,5S)-4-amino-5-ethoxytetrahydro-2H-pyran-2-yl)((S)-1-(4-fluorophenyl)-3,4-dihydroisoquinolin-2(1H)-yl)methanone] the figure was 0.035 µM; with `N[C@@H]1CO[C@@H](C(=O)N2CCc3ccccc3[C@@H]2c2ccc(F)cc2)C[C@@H]1F` [Compound 5064, ((2R,4S,5R)-5-amino-4-fluorotetrahydro-2H-pyran-2-yl)((S)-1-(4-fluorophenyl)-3,4-dihydroisoquinolin-2(1H)-yl)methanone], 0.102 µM.

`N[C@H]1CO[C@@H](C(=O)N2CCc3ccccc3[C@@H]2c2ccc(F)cc2)C[C@H]1O` [Compound 5065, ((2R,4R,5S)-5-amino-4-hydroxytetrahydro-2H-pyran-2-yl)((S)-1-(4-fluorophenyl)-3,4-dihydroisoquinolin-2(1H)-yl)methanone]: the EC50 stood at 0.324 µM. With `N[C@@H]1C[C@@H](C(=O)N2CCc3ccccc3[C@@H]2c2ccc(F)cc2)OC[C@H]1O` [Compound 5068, ((2S,4R,5S)-4-amino-5-hydroxytetrahydro-2H-pyran-2-yl)((S)-1-(4-fluorophenyl)-3,4-dihydroisoquinolin-2(1H)-yl)methanone] the figure was 0.376 µM. Under `N[C@H]1C[C@H](C(=O)N2CCc3ccccc3[C@@H]2c2ccc(F)cc2)OC[C@@H]1F` [Compound 5069, ((2R,4S,5R)-4-amino-5-fluorotetrahydro-2H-pyran-2-yl)((S)-1-(4-fluorophenyl)-3,4-dihydroisoquinolin-2(1H)-yl)methanone] stands 0.142 µM; under `N[C@H]1CO[C@@H](C(=O)N2CCc3ccccc3[C@@H]2c2ccc(F)cc2)C[C@@H]1O` [Compound 5070, ((2R,4S,5S)-5-amino-4-hydroxytetrahydro-2H-pyran-2-yl)((S)-1-(4-fluorophenyl)-3,4-dihydroisoquinolin-2(1H)-yl)methanone], 0.153 µM. With `N[C@@H]1CO[C@H](C(=O)N2CCc3ccccc3[C@@H]2c2ccc(F)cc2)C[C@H]1O` [Compound 5072, ((2S,4R,5R)-5-amino-4-hydroxytetrahydro-2H-pyran-2-yl)((S)-1-(4-fluorophenyl)-3,4-dihydroisoquinolin-2(1H)-yl)methanone] the figure was 0.081 µM; with `CO[C@H]1CO[C@@H](C(=O)N2CCc3ccccc3[C@@H]2c2ccc(F)cc2)C[C@H]1N` [Compound 5073, ((2R,4R,5R)-4-amino-5-methoxytetrahydro-2H-pyran-2-yl)((S)-1-(4-fluorophenyl)-3,4-dihydroisoquinolin-2(1H)-yl)methanone], 0.159 µM. Regarding `N[C@@H]1C[C@H](C(=O)N2CCc3ccccc3[C@@H]2c2ccc(F)cc2)OC[C@@H]1O` [Compound 5074, ((2R,4R,5R)-4-amino-5-hydroxytetrahydro-2H-pyran-2-yl)((S)-1-(4-fluorophenyl)-3,4-dihydroisoquinolin-2(1H)-yl)methanone], the EC50 stood at 0.23 µM.

For `N[C@H]1CO[C@@H](C(=O)N2CCc3ccccc3[C@@H]2c2ccc(F)cc2)C[C@H]1F` [Compound 5075, ((2R,4R,5S)-5-amino-4-fluorotetrahydro-2H-pyran-2-yl)((S)-1-(4-fluorophenyl)-3,4-dihydroisoquinolin-2(1H)-yl)methanone], the EC50 is 0.529 µM. Turning to `C[C@H]1C[C@@H](C(=O)N2CCc3ccccc3[C@@H]2c2ccc(F)cc2)OC[C@@H]1N` [Compound 5076, ((2S,4S,5R)-5-amino-4-methyltetrahydro-2H-pyran-2-yl)((S)-1-(4-fluorophenyl)-3,4-dihydroisoquinolin-2(1H)-yl)methanone], the EC50 came to 0.321 µM. With `CO[C@H]1CO[C@@H](C(=O)N2CCc3ccccc3[C@@H]2c2ccc(F)cc2)C[C@@H]1N` [Compound 5077, ((2R,4S,5R)-4-amino-5-methoxytetrahydro-2H-pyran-2-yl)((S)-1-(4-fluorophenyl)-3,4-dihydroisoquinolin-2(1H)-yl)methanone] the figure was 0.003 µM; with `CCO[C@H]1CO[C@@H](C(=O)N2CCc3ccccc3[C@@H]2c2ccc(F)cc2)C[C@@H]1N` [Compound 5078, ((2R,4S,5R)-4-amino-5-ethoxytetrahydro-2H-pyran-2-yl)((S)-1-(4-fluorophenyl)-3,4-dihydroisoquinolin-2(1H)-yl)methanone], 0.001 µM; with `O=C1N[C@H]2C[C@H](C(=O)N3CCc4ccccc4[C@@H]3c3ccc(F)cc3)OC[C@H]2O1` [Compound 5079, (3aS,6R,7aS)-6-((S)-1-(4-fluorophenyl)-1,2,3,4-tetrahydroisoquinoline-2-carbonyl)hexahydro-2H-pyrano[4,3-d]oxazol-2-one], over 10 µM.

For the compound `N[C@H]1C[C@@H](C(=O)N2CCc3ccccc3[C@@H]2c2ccc(F)cc2)OC[C@@H]1O` [Compound 5083, ((2S,4S,5R)-4-amino-5-hydroxytetrahydro-2H-pyran-2-yl)((S)-1-(4-fluorophenyl)-3,4-dihydroisoquinolin-2(1H)-yl)methanone], the EC50 was 0.084 µM. For the compound `C[C@@H]1C[C@@H](C(=O)N2CCc3ccccc3[C@@H]2c2ccc(F)cc2)OC[C@@H]1N` [Compound 5084, ((2S,4R,5R)-5-amino-4-methyltetrahydro-2H-pyran-2-yl)((S)-1-(4-fluorophenyl)-3,4-dihydroisoquinolin-2(1H)-yl)methanone], the concentration giving a half-maximal response (EC50) was 0.18 µM.

One may read the EC50 as the concentration at which the effect is half-maximal.

The values are drawn from US20230406843A1, “Progranulin Modulators and Methods of Using the Same” (ARKUDA THERAPEUTICS, priority 2020, published 2023).
